Experimental data from patent US5637724A (priority 1995, dated 1997).
pKi: −log10 of the molar value.

What follows are compounds tested against GABAa receptor (assay: GABAa receptor binding, displacement of 3H-RO15-1788 [3H-Flumazenil]). Settings: rat cortical tissue, 0.5 nM 3H-RO15-1788, 30 min at 4° C., pH 7.4.
Procedure: The pharmaceutical utility of compounds of this invention are indicated by the following assay for GABAa receptor activity.
Assays are carded out as described in Thomas and Tallman (J. Bio. Chem. 156: 9838-9842, J. Neurosci. 3: 433-440, 1983). Rat conical tissue is dissected and homogenized in 25 volumes (w/v) of 0.05M Tris HCl buffer (pH 7.4 at 4° C.). The tissue homogenate is centrifuged in the cold (4°) at 20,000×g for 20'. The supernatant is decanted and the pellet is rehomogenized in the same volume of buffer and again centrifuged at 20,000×g. The supernatant is decanted and the pellet is frozen at -20° C. overnight. The pellet is then thawed and rehomogenized in 25 volume (original wt/vol) of buffer and the procedure is carded out twice. The pellet is finally resuspended in 50 volumes (w/vol of 0.05M Tris HCl buffer (pH 7.4 at […]).
Incubations contain […] of tissue homogenate, […] of radioligand 0.5 nM (3H-RO15-1788 [^3 H-Flumazenil] specific activity 80 Ci/mmol), drug or blocker and buffer to a total volume of […]. Incubations are carried for 30 min at 4° C. then are rapidly filtered through GFB filters to separate free and bound ligand. Filters are washed twice with fresh 0.05M Tris HCl buffer (pH 7.4 at 4° C.) and counted in a liquid scintillation counter. 1.0 mM diazepam is added to some tubes to determine nonspecific binding. Data are collected in triplicate determinations, averaged and % inhibition of total specific binding is calculated. Total Specific Binding=Total-Nonspecific. In some cases, the amounts of unlabeled drugs is varied and total displacement curves of binding are carded out. Data are converted to a form for the calculation of IC50 and Hill Coefficient (nH).
With `O=c1[nH]c2c(n1-c1nc3ccc(F)c(F)c3o1)CCCCC2` [Compound 1] the pKi was 8.52. Compound `O=c1[nH]c2c(n1-c1nc3ccc(F)cc3o1)CCCCC2` [Compound 2] has a pKi of 8.34. For `O=c1[nH]c2cc(F)ccc2n1-c1nc2cccc(F)c2o1` [Compound 3, 3-(2-(7-fluorobenzoxazyl))-6-fluorobenzimidazol-2-(1H)-one], the pKi was 7.85. `O=c1[nH]c2cc(F)ccc2n1-c1nc2ccc(F)cc2o1` [Compound 4, 3-(2-(6-fluorobenzoxazyl))-6-fluorobenzimidazol-2-(1H)-one] was tested, and the pKi was 7.60. `O=c1[nH]c2c(n1-c1nc3ccc(F)c(F)c3o1)CCCC2` [Compound 5] was tested, and the pKi was 7.68. `COc1ccc2oc(-n3c4c([nH]c3=O)CCCC4)nc2c1` [Compound 6] showed a pKi of 7.09.
